{"source": "patent US6656888B1", "about": "“Biodegradable two-cycle engine oil compositions, grease compositions, and ester base stocks use therein” (Cognis Corporation, priority 1992, dated 2003)", "type_in_all_cases": "physicochemical", "key": {"[1]": {"test": "Kinematic viscosity, ASTM D-445"}, "Flash Point, ASTM D-92": {"test": "Flash Point, ASTM D-92"}, "Pour Point, ASTM D-97": {"test": "Pour Point, ASTM D-97"}}, "data": [{"substance": "trimethylolpropane trioleate [EMERY® 2964]", "values": [{"measurement": "Viscosity, cSt 40° C.", "setting": "[1]; 40° C.", "value": 48.43, "unit": "cSt"}, {"measurement": "Viscosity, cSt 100° C.", "setting": "[1]; 100° C.", "value": 10.17, "unit": "cSt"}, {"measurement": "Flash Point, ° C.", "setting": "Flash Point, ASTM D-92", "value": 312, "unit": "°C"}, {"measurement": "Pour Point, ° C.", "setting": "Pour Point, ASTM D-97", "value": "−40", "unit": "°C"}]}]}
